The target of assay [1] is T1, interaction between the integrin LFA-1 and its adhesion partner ICAM-1 (Homo sapiens, UniProt P20701).
T1 construct: Recombinant LFA-1 (100 μL of 0.7 μg/ml mL, ICOS Corporation) in D-PBS; purchased ICOS Corporation
Briefly: ICAM-1/LFA-1 Biochemical Interaction Assay. In kind it is binding. As to conditions: 4 μM compound; recombinant LFA-1, biotinylated ICAM-1/Ig. As for the experimental part: Compounds that antagonize the interaction between ICAM-1 and LFA-1 can be identified, and their activities quantitated, using both biochemical and cell-based adhesion assays. A primary biochemical assay measures the ability of the compound in question to block the interaction between the integrin LFA-1 and its adhesion partner ICAM-1, as described below:
ICAM-1/LFA-1 Biochemical Interaction Assay
In the biochemical assay, 100 μL of anti-LFA-1 antibody (ICOS Corporation) at a concentration of 5 μg/ml mL in Dulbecco's phosphate-buffered saaline (D-PBS) is used to coat wells of a 96-well microtiter plate overnight at 4° C. The wells are were then washed twice with wash buffer (D-PBS w/o Ca^++ or Mg^++, 0.05% Tween 20) and blocked by addition of 200 μL of D-PBS, 5% fish skin gelatin. Recombinant LFA-1 (100 μL of 0.7 μg/ml mL, ICOS Corporation) in D-PBS is was then added to each well. Incubation continues continued for 1 hour at room temperature and the wells are were washed twice with wash buffer. Serial dilutions of compounds being assayed as ICAM-1/LFA-1 antagonists, were prepared as 10 mM stock solutions in dimethyl sulfoxide (DMSO), are were diluted in D-PBS, 2 mM MgCl2, 1% fish skin gelatin and 50 μL of each dilution was added to duplicate wells. This is was followed by the addition of 50 μL of 0.8 μg/ml mL biotinylated recombinant ICAM-1/Ig (ICOS Corporation) to the wells and the plates are were incubated at room temperature for 1 hour. The wells are were then washed twice with wash buffer and 100 μL of Europium-labeled Streptavidin (Wallac Oy) diluted 1:100 in Delfia assay buffer (Wallac Oy), are was then added to the wells. Incubation proceeds proceeded for 1 hour at room temperature. The wells are were washed eight times with wash buffer and 100 μL of enhancement solution (Wallac Oy, cat. No. 1244-105) are was added to each well. Incubation proceeds proceeded for 5 minutes with constant mixing. Time-resolved fluorimetry measurements are were made using the a Victor 1420 Multilabel Counter (Wallac Oy) and the percent inhibition of each candidate compound is was calculated using the following equation: [formula] where “background” refers to wells that are were not coated with anti-LFA-1 antibody.

In assay [2] the test system is adhesion of JY-8 cells (expressing LFA-1) to immobilized ICAM-3. Briefly: ICAM-3/JY-8 Cell Adhesion Assay. The format is cell-based, human. As to conditions: 0.6 μM compound, JY-8 cells on immobilized ICAM-3/Ig; for inhibition at 0.6 µM: Homo sapiens. Here is the method:
As such, it is expected that these compounds should block the interaction of LFA-1 with other CAM's. […] Compounds of the present invention may be evaluated for their ability to block the adhesion of JY-8 cells (a human EBV-transformed B cell line expressing LFA-1 on its surface) to immobilized ICAM-3, as follows:
ICAM-3/JY-8 Cell Adhesion Assay
For measurement of inhibitory activity in the cell-based adhesion assay, 96-well microtiter plates are were coated with 50 μL of recombinant ICAM-3/Ig (ICOS Corporation) at a concentration of 10 μg/mL in D-PBS w/o without Ca^++ or Mg^++ overnight at 4° C. The wells are were then washed twice with D-PBS, blocked by addition of 100 μL of D-PBS, 1% bovine serum albumin (BSA) by incubation for 1 hour at room temperature, and washed once with RPMI-1640/5% heat-inactivated fetal bovine serum (adhesion buffer). Dilutions of compounds to be assayed for ICAM-3/LFA-1 antagonistic activity are were prepared in adhesion buffer from 10 mM stock solutions in DMSO and 100 μL are were added to duplicate wells. JY-8 cells (a human EBV-transformed B cell line expressing LFA-1 on its surface; 100 μL at 0.75×10^6 cells/ml mL in adhesion buffer) are were then added to the wells. Microtiter plates are were incubated for 30 minutes at room temperature; the adherent cells are were then fixed with 50 μL of 14% glutaraldehyde/D-PBS and were incubated for an additional 90 minutes. The wells are were washed gently with dH2O; 50 μL of dH2O is was added, following followed by 50 μL of 1% crystal violet. After 5 minutes the plates are were washed 3× times with dH2O; 75 μL of dH2O and 225 μL of 95% EtOH are were added to each well to extract the crystal violet from the cells. Absorbance is was measured at […] in an ELISA plate reader. The percent inhibition of a candidate compound is was calculated using the following equation. [formula]

In assay [3] the test system is adherence of JY-8 cells (expressing LFA-1) to immobilized ICAM-1. Briefly: ICAM-1/JY-8 Cell Adhesion Assay. In kind it is cell-based, human. As for the experimental part: ICAM-1/JT-8 Cell Adhesion Assay
For measurment measurement of inhibotory inhibitory activity in the cell-based adhesion assay, 96-well microtiter plates are were coated with 70 μL of recombinat recombinant ICAM-1/Ig (ICOS Corporation) at a concentration of 5 μg/mL in D-PBS w/o without Ca^++ or Mg++ or Mg^++ overnight at 4° C. The wells are were then washed twice with D-PBS and blocked by addition of 200 μL of D-PBS, 5% fish skin gelatin by incubation for 1 hour at room temperature. […] The percent inhibition of a candidate compound at a given concentration is was calculated using the following equation: [formula] and these concentration/inhibition data are were used to generate does response curves, from which IC50 values are were derived.

Where [4] appears, read: Homo sapiens, JY-8, JY-8 cells on immobilized ICAM-1/Ig.
Where [5] appears, read: JY-8 cells on immobilized ICAM-1/Ig.

T1 sequence (P20701 26-1170): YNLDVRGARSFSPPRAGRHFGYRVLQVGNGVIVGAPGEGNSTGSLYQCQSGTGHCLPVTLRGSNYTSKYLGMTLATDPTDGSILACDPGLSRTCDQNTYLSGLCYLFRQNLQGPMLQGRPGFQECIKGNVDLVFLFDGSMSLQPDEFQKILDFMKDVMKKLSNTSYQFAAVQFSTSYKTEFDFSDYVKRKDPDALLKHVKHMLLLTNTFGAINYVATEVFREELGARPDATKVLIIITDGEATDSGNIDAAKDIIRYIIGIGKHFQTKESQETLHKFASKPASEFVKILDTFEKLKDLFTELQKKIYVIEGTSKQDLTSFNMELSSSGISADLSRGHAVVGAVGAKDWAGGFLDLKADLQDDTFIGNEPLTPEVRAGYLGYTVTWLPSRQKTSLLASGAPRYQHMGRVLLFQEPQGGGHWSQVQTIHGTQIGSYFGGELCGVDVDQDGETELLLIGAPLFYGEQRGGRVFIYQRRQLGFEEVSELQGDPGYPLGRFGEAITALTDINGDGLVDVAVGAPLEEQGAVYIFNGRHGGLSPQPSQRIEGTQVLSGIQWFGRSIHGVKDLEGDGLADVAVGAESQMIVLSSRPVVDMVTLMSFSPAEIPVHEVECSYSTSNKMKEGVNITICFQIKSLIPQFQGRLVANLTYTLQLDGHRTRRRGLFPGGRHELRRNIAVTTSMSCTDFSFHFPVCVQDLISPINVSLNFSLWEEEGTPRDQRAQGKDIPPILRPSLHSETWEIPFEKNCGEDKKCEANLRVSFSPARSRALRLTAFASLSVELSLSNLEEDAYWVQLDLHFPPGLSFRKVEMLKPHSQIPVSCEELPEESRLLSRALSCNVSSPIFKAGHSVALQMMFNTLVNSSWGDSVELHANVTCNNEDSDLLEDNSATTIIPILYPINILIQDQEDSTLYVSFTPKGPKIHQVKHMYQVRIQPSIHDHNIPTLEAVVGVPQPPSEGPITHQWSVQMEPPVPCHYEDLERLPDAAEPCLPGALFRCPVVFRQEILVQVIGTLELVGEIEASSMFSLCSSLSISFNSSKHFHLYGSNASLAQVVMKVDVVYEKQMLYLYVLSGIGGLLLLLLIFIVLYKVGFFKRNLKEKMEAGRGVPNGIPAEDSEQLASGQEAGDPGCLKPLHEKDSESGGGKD
T1 sequence (P05107 23-769 partner): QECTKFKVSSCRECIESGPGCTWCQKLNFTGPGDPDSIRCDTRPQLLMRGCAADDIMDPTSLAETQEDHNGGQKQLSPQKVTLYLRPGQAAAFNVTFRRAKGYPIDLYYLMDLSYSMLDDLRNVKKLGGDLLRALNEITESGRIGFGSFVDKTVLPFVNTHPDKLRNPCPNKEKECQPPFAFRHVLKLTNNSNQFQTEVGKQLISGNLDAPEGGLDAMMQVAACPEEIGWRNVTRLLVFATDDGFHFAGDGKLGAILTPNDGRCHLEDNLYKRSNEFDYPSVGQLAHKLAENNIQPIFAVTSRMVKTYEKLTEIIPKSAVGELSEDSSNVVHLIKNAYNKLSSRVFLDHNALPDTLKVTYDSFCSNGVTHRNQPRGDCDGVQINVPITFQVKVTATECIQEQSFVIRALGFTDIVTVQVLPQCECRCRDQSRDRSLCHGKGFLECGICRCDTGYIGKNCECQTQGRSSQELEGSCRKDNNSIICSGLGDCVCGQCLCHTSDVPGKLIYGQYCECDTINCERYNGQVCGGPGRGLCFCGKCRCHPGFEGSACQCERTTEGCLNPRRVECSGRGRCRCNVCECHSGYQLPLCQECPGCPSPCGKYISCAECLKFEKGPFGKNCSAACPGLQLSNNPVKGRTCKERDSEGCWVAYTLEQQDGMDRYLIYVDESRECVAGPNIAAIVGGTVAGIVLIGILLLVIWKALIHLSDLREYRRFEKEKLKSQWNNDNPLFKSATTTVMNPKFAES

With `CC(=O)N1CCN(C(=O)/C=C/c2ccc(Sc3ccc(Cl)cc3Cl)c(Cl)c2)CC1` [Example 9, (2,4-Dichlorophenyl)[2-chloro-4-(E-((4-acetylpiperazin-1-yl)carbonyl)ethenyl)phenyl]sulfide], in assay [1], the inhibition at 4 µM came to 93%. This molecule also showed an inhibition at 0.6 µM in assay [2] of 100%. Further, 130 nM corresponded to half-maximal inhibition in assay [3] (setting [4]) (IC50).

For `O=C(/C=C/c1ccc(Sc2ccccc2Br)c(Cl)c1)N1CCOCC1` [Example 12], in assay [1], the “% inhibition @ 4 μM” value is recorded as 90%. Moreover, the “% inhibition @ 0.6 μM” value in assay [2] is on record as 100%. This molecule came in with an IC50 in assay [3] (setting [5]) of 360 nM.

For `O=C(/C=C/c1ccc(Sc2ccccc2Br)c(Cl)c1)N1CCCC(CO)C1` (centres unmarked) [Example 15, (2-(Bromophenl)[2-chloro-4-(E-((3-hydroxymethyl)piperidin-1-yl)carbonyl)ethenyl)phenyl]sulfide], in assay [1], the “% inhibition @ 4 μM” value stood at 88%. In addition, in assay [2], the “% inhibition @ 0.6 μM” value came to 100%. In assay [3] (setting [5]), this molecule came in with an IC50 of 140 nM.

For `O=C(/C=C/c1ccc(Sc2ccccc2Br)c(Cl)c1)N1CCCCC1CO` (centres unmarked) [Example 16, (2-(Bromophenyl)[2-chloro-4-(E-((2-hydroxymethyl)piperidin-1-yl)carbonyl)ethenyl)phenyl]sulfide], the “% inhibition @ 4 μM” value in assay [1] was 86%. Moreover, the “% inhibition @ 0.6 μM” value in assay [2] stood at 100%. Also, in assay [3] (setting [5]), the IC50 was determined as 300 nM.

Regarding `CC(=O)NC1CCN(C(=O)/C=C/c2ccc(Sc3ccccc3Br)c(Cl)c2)C1` (centres unmarked) [Example 17], in assay [1], the “% inhibition @ 4 μM” value turned out to be 84%. For the same molecule, in assay [2], the “% inhibition @ 0.6 μM” value was 100%. This molecule showed an IC50 in assay [3] (setting [5]) of 5800 nM.

Consider `O=C(/C=C/c1ccc(Sc2ccccc2Br)c(Cl)c1)N1CCC(O)CC1` [Example 18], for which the “% inhibition @ 4 μM” value in assay [1] was determined as 86%. In assay [2], the “% inhibition @ 0.6 μM” value turned out to be 100%. In addition, the IC50 in assay [3] (setting [5]) amounted to 130 nM.

Turning to `CC(=O)N1CCN(C(=O)/C=C/c2ccc(Sc3ccccc3C)c(C(F)(F)F)c2)CC1` [Example 26], the “% inhibition @ 4 μM” value in assay [1] came to 94%. Further, the “% inhibition @ 0.6 μM” value in assay [2] is reported as 100%. The IC50 in assay [3] (setting [5]) is 110 nM.

With `Cc1ccccc1Sc1ccc(/C=C/C(=O)N2CCOCC2)cc1C(F)(F)F` [Example 27, (2-Methylphenyl)[2-trifluoromethyl-4-(E-((1-morpholinyl)carbonyl)ethenyl)phenyl]sulfide], the “% inhibition @ 4 μM” value in assay [1] came out at 94%. Also, the “% inhibition @ 0.6 μM” value in assay [2] is listed as 100%. The same molecule displayed an IC50 in assay [3] (setting [5]) of 160 nM.

`Cc1ccccc1Sc1ccc(/C=C/C(=O)NCCCN2CCCC2=O)cc1C(F)(F)F` [Example 30, (2-Methylphenyl)[2-trifluoromethyl-4-(E-((3-(2-oxopyrrolidin-1-yl)propylamino)carbonyl)ethenyl)phenyl]sulfide]: the inhibition at 4 µM in assay [1] was found to be 93%. This molecule also yielded an inhibition at 0.6 µM in assay [2] of 100%. The same molecule returned an IC50 in assay [3] (setting [4]) of 250 nM.

In the case of `CC(=O)N1CCN(C(=O)/C=C/c2ccc(Sc3ccc(Cl)cc3Cl)c([N+](=O)[O-])c2)CC1` [Example 32, (2,4-Dichlorophenyl)[2-nitro-4-(E-((4-acetylpiperazin-1-yl)carbonyl)ethenyl)phenyl]sulfide], in assay [1], the inhibition at 4 µM stood at 92%. This molecule displayed an inhibition at 0.6 µM in assay [2] of 100%.

`CC(=O)N1CCN(C(=O)/C=C/c2ccc(Sc3cccc(Cl)c3Cl)c([N+](=O)[O-])c2)CC1` [Example 34, (2,3-Dichlorophenyl)[2-nitro-4-(E-((4-acetylpiperazin-1-yl)carbonyl)ethenyl)phenyl]sulfide]: the inhibition at 4 µM in assay [1] stood at 91%. In assay [2], the inhibition at 0.6 µM was 100%. Also, in assay [3] (setting [4]), inhibition was half-maximal at 70 nM (IC50).

Take `CC(=O)N1CCN(C(=O)/C=C/c2ccc(Sc3ccccc3C(C)C)c([N+](=O)[O-])c2)CC1` [Example 50, (2-iso-Propylphenyl)[2-nitro-4-(E-((4-acetylpiperazin-1-yl)carbonyl)ethenyl)phenyl]sulfide]: in assay [2], the inhibition at 0.6 µM was determined as 100%. For the same molecule, it took 10 nM to reach half-maximal inhibition in assay [3] (setting [4]) (IC50).

`O=C(/C=C/c1ccc(Sc2ccccc2CN2CCN(Cc3ccc4c(c3)OCO4)CC2)c(Cl)c1)N1CCOCC1` [Example 54, (2-(4-(1,3-Benzodioxolyl-5-methyl)piperazin-1-ylmethyl)phenyl)[2-chloro-4-(E-((1-morpholinyl)carbonyl)ethenyl)phenyl]sulfide]: the “% inhibition @ 0.6 μM” value in assay [2] is listed as 100%. In assay [3] (setting [5]), this molecule showed an IC50 of 360 nM.

Consider `O=Cc1ccccc1Sc1ccc(/C=C/C(=O)N2CCOCC2)cc1Cl` [Example 57, (2-Formylphenyl)[2-chloro-4-(E-((1-morpholinyl)carbonyl)ethenyl)phenyl]sulfide], for which, in assay [1], the “% inhibition @ 4 μM” value was 90%. The molecule further gave an IC50 in assay [3] (setting [5]) of 220 nM.

`O=C(/C=C/c1ccc(Sc2ccccc2/C=C/C(=O)N2CCOCC2)c(Cl)c1)N1CCOCC1` [Example 59, (2-(E-((1-Morpholinyl)carbonyl)ethenyl)phenyl)[2-chloro-4-(E-((1-morpholinyl)carbonyl)ethenyl)phenyl]sulfide]: the “% inhibition @ 0.6 μM” value in assay [2] is given as 100%. In assay [3] (setting [5]), the IC50 is 200 nM.

Take `CN(C)N=Cc1ccccc1Sc1ccc(/C=C/C(=O)N2CCOCC2)cc1Cl` [Example 61, (2-Formylphenyl)[2-chloro-4-(E-((1-morpholinyl)carbonyl)ethenyl)phenyl]sulfide, N,N-dimethyl hydrazone]: the “% inhibition @ 4 μM” value in assay [1] was determined as 88%. Half-maximal inhibition in assay [3] (setting [5]) (IC50) required 540 nM.

Consider `O=C(/C=C/c1ccc(Sc2ccccc2NCCCN2CCOCC2)c(Cl)c1)N1CCOCC1` [Example 62, (2-((3-(1-Morpholinyl)propyl)-1-amino)phenyl)[2-chloro-4-(E-((1-morpholinyl)carbonyl)ethenyl)phenyl]sulfide], for which the “% inhibition @ 0.6 μM” value in assay [2] is given as 100%. The same molecule showed an IC50 in assay [3] (setting [5]) of 340 nM.

Consider `O=C(/C=C/c1ccc(Sc2ccc(Cl)cc2Cl)c(Br)c1)NCCCN1CCCC1=O` [Example 63, (2,4-Dichlorophenyl)[2-bromo-4-(E-((3-(2-oxopyrrolidin-1-yl)propylamino)carbonyl)ethenyl)phenyl]sulfide], for which the inhibition at 4 µM in assay [1] was found to be 82%. The IC50 in assay [3] (setting [4]) is 850 nM.

In the case of `CC(=O)N1CCN(C(=O)/C=C/c2ccc(Sc3c(Cl)cccc3C=O)c(Cl)c2)CC1` [Example 65, (2-Chloro-6-formylphenyl)[2-chloro-4-(E-((4-acetylpiperazin-1-yl)carbonyl)ethenyl)phenyl]sulfide], the inhibition at 4 µM in assay [1] amounted to 86%. In assay [3] (setting [4]), the IC50 worked out at 1200 nM.

With “(2-Chlorophenyl)[2-chloro-4-(E-((4-acetylpiperazin-1-yl)carbonyl))2-propenyl)phenyl]sulfide [Example 52]”, the “% inhibition @ 4 μM” value in assay [1] is reported as 86%. In assay [3] (setting [5]), this molecule showed an IC50 of 420 nM.

The values above are taken from patent USRE39197E1, “Cell adhesion-inhibiting antiinflammatory and immune-suppressive compounds” (Abbott Laboratories, priority 1998, dated 2006).
